From patent publication US5952307A, “Basic α-aminoalkylphosphonate derivatives” (priority 1997, dated 1999)
Where two headings read alike, the source gives them in different places.

Legend:
Assay type in all cases: biochemical
[1] = molecular target: urokinase (Homo sapiens, UniProt P00749); assay: Inactivation rate of urokinase, incubation method; settings: Table III; enzyme 0.06-0.5 μM, inhibitor 0.25-42 μM, 9% DMSO, 25° C.; NI = no inhibition
Procedure: (§1) Inactivation rates of serine proteases by aryl diesters of peptidyl derivatives of α-aminoalkylphosphonates were measured by the incubation method. An aliquot of inhibitor (25 or 50 μl) in Me2 SO was added to a buffered enzyme solution (0.01-2.3 μM) to initiate the inactivation. Aliquots (50 μl) were withdrawn at various intervals and the residual enzymatic activity was measured. Me2 SO concentration in the reaction mixture was 8-12% (v/v). A 0.1 M HEPES, 0.01 M CaCl2, pH 7.5 buffer was utilized for trypsin and trypsin-like enzymes. A 0.1 M HEPES, 0.5 M NaCl, pH 7.5, was utilized for the other serine proteases. Peptide thioesters or peptide nitroanilides with the appropriate sequences were used as substrates for various serine proteases. All peptide thioesters hydrolysis rates were measured with the assay mixture containing 4,4'-dithiodipyridine {ε324 =19800 M^-1 cm^-1; Grasetti & Murray, Arch. Biochem. Biophys. 1967, 119, 41-48}. Peptide 4-nitroanilide hydrolysis was measured at 410 nm {ε410 =8800 M^-1 cm^-1; Erlanger et al., Arch. Biochem. Biophys. 1961, 95, 271-278}. First order inactivation rate constants (Kobs) were obtained from plots of In vt /vo vs time, and the correlation coefficients were greater then 0.98.
(§2) ^a Enzyme (0.06-0.5 μM) was incubated with the inhibitor (0.25-42
(§3) μM) in 250 μL of the proper buffer containing 9% DMSO at 25°
(§4) C. The final inhibition reaction mixtures are given in the footnote to
(§5) Table 1. Aliquots of 25 μL were withdrawn at various intervals and the
(§6) residual enzymatic activity was measured as described in experimental
(§7) section. The kobs values were calculated from pseudofirst-order

[2] = molecular target: T1, human thrombin (Homo sapiens, UniProt P00734); settings: 25° C., NI = no inhibition
T1 construct: bovine trypsin, human thrombin
In short: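 Irreversible inactivation followed by incubation method at 25 °C: 0.07 μM thrombin with 0.25–42 μM inhibitor in 80 mM Hepes pH 7.5, 428 mM NaCl, 8% DMSO. Residual activity of withdrawn aliquots measured with thioester or 4-nitroanilide substrates; kobs from pseudo-first-order fits.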

[3] = molecular target: mast cell tryptase (Homo sapiens, UniProt Q15661); assay: Inactivation rate of mast cell tryptase, incubation method; settings: for kobs /[I] mast cell tryptase: 25° C., NI = no inhibition; for kobsd /[I] mast cell tryptase: Table I, 0.1M Hepes, 10% glycerol, 10 mM heparin, pH 7.5, 25° C., 7.1% DMSO, NI = no inhibition after 25 min of incubation
Chain of mast cell tryptase (Q15661 31-275): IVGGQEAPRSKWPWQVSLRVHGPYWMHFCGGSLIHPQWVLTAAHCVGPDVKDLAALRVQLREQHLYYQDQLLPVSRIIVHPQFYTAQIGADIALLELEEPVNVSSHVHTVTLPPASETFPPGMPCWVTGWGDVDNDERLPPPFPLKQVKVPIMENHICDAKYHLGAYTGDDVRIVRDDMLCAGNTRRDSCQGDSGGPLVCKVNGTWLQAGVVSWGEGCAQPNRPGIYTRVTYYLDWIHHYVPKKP
In short: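 Incubation method at 25 °C: 0.07 μM tryptase with 20–66 μM inhibitor in Hepes pH 7.5 containing heparin, glycerol and DMSO. Aliquots were withdrawn at intervals for residual activity on Z-Arg-SBzl or Z-Lys-SBzl with DTNB. Pseudo-first-order kobs came from ln(vt/v0) versus time.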

[4] = molecular target: T2, bovine trypsin (Bos taurus, UniProt P00760); assay: Inactivation rate of bovine trypsin, incubation method; settings: Table III; enzyme 0.06-0.5 μM, inhibitor 0.25-42 μM, 9% DMSO, 25° C.; NI = no inhibition
T2 sequence (P00760 24-246): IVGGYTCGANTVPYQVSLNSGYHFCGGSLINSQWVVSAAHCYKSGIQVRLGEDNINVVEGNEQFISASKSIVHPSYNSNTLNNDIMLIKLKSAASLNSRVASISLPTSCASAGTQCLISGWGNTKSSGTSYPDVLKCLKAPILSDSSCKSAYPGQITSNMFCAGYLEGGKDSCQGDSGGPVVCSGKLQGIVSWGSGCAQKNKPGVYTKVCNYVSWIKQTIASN

[5] = molecular target: T3, plasmin (Homo sapiens, UniProt P00747); assay: Inactivation rate of plasmin, incubation method; settings: Table III; for kobs /[I] plasmin: enzyme 0.06-0.5 μM, inhibitor 0.25-42 μM, 9% DMSO, 25° C., NI = no inhibition
T3 construct: factor Xa, plasmin, and urokinase
T3 sequence (P00747 581-810 limits assumed, species assumed): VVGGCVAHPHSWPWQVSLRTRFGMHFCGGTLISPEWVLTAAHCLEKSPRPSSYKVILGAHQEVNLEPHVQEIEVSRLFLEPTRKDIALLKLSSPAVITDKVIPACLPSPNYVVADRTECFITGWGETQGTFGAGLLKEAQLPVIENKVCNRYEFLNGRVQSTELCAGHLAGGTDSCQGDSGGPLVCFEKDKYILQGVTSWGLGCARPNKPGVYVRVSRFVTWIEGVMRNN
T3 sequence (P00747 97-580 partner limits assumed, species assumed): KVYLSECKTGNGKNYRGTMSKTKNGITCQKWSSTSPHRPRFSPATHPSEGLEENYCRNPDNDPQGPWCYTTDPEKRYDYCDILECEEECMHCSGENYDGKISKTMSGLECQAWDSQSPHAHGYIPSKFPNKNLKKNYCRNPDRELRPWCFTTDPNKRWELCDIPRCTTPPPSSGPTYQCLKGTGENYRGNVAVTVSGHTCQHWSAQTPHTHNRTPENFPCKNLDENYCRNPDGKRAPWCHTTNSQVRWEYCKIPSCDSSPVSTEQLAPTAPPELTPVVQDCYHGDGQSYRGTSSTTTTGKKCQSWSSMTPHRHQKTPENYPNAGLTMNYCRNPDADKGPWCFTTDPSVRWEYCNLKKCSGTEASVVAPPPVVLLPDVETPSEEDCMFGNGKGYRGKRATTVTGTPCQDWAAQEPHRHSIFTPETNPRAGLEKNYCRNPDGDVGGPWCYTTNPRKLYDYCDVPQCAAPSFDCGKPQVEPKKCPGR
Procedure: as §1, §2, §3, §4, §5, §6, §7
^b Inhibitor concentration of 0.24 mM.

[6] = molecular target: T4, rat granzyme K (Rattus norvegicus, UniProt P49864); assay: Inactivation rate of rat granzyme K, incubation method; settings: Table I; 0.1M Hepes, 0.01M CaCl2 pH 7.5, 25° C., 7.1% DMSO, substrate Z--Arg--SBzl; NI = no inhibition after 25 min of incubation
T4 sequence (P49864 26-258): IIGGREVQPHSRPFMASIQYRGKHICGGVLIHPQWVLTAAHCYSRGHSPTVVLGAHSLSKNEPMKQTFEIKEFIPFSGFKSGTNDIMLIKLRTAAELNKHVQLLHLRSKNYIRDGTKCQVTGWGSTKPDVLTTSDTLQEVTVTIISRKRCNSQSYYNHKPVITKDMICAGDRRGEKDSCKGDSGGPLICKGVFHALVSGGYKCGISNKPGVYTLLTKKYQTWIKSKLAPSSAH
In short: (§8)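 Inhibitor in DMSO added to enzyme (0.01-2.3 μM) in 0.1 M HEPES, 0.01 M CaCl2, pH 7.5, 25° C (DMSO 7.6% for granzyme A, 7.1% for granzyme K); residual activity on Z-Arg-SBzl with DTNB read at intervals. Kobs from ln vt/vo vs time plots.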

[7] = molecular target: T2, bovine trypsin; assay: Inactivation rate of bovine trypsin, incubation method; settings: for kobsd /[I] bovine trypsin: Table I, 0.1M Hepes, 0.01M CaCl2 pH 7.5, 25° C., 2% DMSO, substrate Z--Arg--SBzl, NI = no inhibition after 25 min; for kobs /[I] bovine trypsin: Table II, 0.13 μM trypsin, 0.25-42 μM inhibitor, 80 mM Hepes pH 7.5, 1 mM CaCl2, 8% DMSO, 25° C., NI = no inhibition
In short: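 Incubation method: trypsin pre-incubated with inhibitor (0.25-42 μM) at 25° C in 80 mM Hepes, 1 mM CaCl2, pH 7.5, 8% DMSO; aliquots withdrawn over time for residual activity on Z-Arg-SBzl thioester with DTNB or 4,4'-dithiodipyridine. Pseudo-first-order kobs from ln vt/vo versus time.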

[8] = system: rat granzyme A; assay: Inactivation rate of rat granzyme A, incubation method; settings: Table I; 0.1M Hepes, 0.01M CaCl2 pH 7.5, 25° C., 7.6% DMSO, substrate Z--Arg--SBzl
Procedure: as §1
^a Inhibition constants were measured in 0.1M Hepes, 0.01M CaCl2
pH 7.5 for trypsin, granzymes A, and K, and in 0.1M Hepes, 10% glycerol,
10 mM heparin, pH 7.5 for mast cell tryptase, and at 25° C. The
reaction mixtures contained 2% DMSO for trypsin, 7.6% for granzyme A, and
7.1% for granzyme K and tryptase. The substrate was Z--Arg--SBzl for
granzymes and trypsin, and Z--Arg--SBzl or Z--Lys--SBzl for tryptase in
the presence of DTNB. The inhibitor # concentration ranged from 0.001 to
^b NI, no inhibition after 25 min of incubation with enzyme.

[9] = molecular target: T5, human granzyme A (Homo sapiens, UniProt P12544); assay: Inactivation rate of human granzyme A, incubation method; settings: Table I; 0.1M Hepes, 0.01M CaCl2 pH 7.5, 25° C., 7.6% DMSO, substrate Z--Arg--SBzl
T5 sequence (P12544 29-262): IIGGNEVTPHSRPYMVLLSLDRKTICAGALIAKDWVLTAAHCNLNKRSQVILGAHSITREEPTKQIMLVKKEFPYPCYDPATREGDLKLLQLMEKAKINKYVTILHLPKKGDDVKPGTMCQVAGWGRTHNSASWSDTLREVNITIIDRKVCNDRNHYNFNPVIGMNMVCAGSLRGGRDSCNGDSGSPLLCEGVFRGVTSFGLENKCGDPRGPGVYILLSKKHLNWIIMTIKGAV
In short: as §8

[10] = Table III, enzyme 0.06-0.5 μM, inhibitor 0.25-42 μM, 9% DMSO
[11] = Table II, 0.07 μM thrombin, 0.25-42 μM inhibitor, 80 mM Hepes pH 7.5, 428 mM NaCl, 8% DMSO
[12] = Table II, 0.07 μM tryptase, 20-66 μM inhibitor, Hepes pH 7.5, heparin, 9% glycerol, 8% DMSO

Row | Compound | kobs /[I] urokinase [1] [M⁻¹ s⁻¹] | kobs /[I] human thrombin [2, 10] | kobs /[I] mast cell tryptase [3, 10] | kobs /[I] bovine trypsin [4] | kobs /[I] plasmin [5] [M⁻¹ s⁻¹] | % Inh plasmin ([5]; inhibitor concentration of 0.24 mM) [%] | kobsd /[I] rat granzyme K [6] [M⁻¹ s⁻¹] | kobs /[I] human thrombin [2, 11] | kobsd /[I] bovine trypsin [7] [M⁻¹ s⁻¹] | kobs /[I] bovine trypsin [7] | kobsd /[I] mast cell tryptase [3] [M⁻¹ s⁻¹] | kobs /[I] mast cell tryptase [3, 12] [M⁻¹ s⁻¹] | kobsd /[I] rat granzyme A [8] [M⁻¹ s⁻¹] | kobsd /[I] human granzyme A [9] [M⁻¹ s⁻¹]
1 | NCCCCCC(NC(=O)C1CCCN1C(=O)C(N)Cc1ccccc1)P(=O)(Oc1ccccc1)Oc1ccccc1 (mixture of isomers) [D--Phe--Pro-HomoLys^P (OPh)2] | 7.8 ± 0.0 | 1,342 ± 272 M^-1 s^-1 | 4.1 0.2 M^-1 s^-1 | 164 ± 14 M⁻¹ s⁻¹ | – | – | – | – | – | – | – | – | – | –
2 | NCCCCCC(NC(=O)C1CCCN1C(=O)CNS(=O)(=O)Cc1ccccc1)P(=O)(Oc1ccccc1)Oc1ccccc1 (mixture of isomers) [PhCH2 SO2 Gly--Pro-HomoLys^P (OPh)2] | 38 ± 3 | 137 ± 12 M⁻¹ s⁻¹ | 32 ± 2 M⁻¹ s⁻¹ | 528 ± 59 M⁻¹ s⁻¹ | 8.4 ± 0.2 | – | – | – | – | – | – | – | – | –
3 | Cl.NCCCCCC(NC(=O)[C@@H]1CCCN1C(=O)c1cccc(Oc2ccccc2)c1)P(=O)(Oc1ccccc1)Oc1ccccc1 (some centres unmarked) [3-Phenoxybenzoyl-Pro-HomoLys^P (OPh)2, Diphenyl 1-(N-(3-Phenoxybenzoylprolyl)amino)-6-aminohexanephosphonate Hydrochloride] | 22 ± 1 | 27 ± 5 M⁻¹ s⁻¹ | 10 ± 3 M⁻¹ s⁻¹ | 116 ± 34 M⁻¹ s⁻¹ | 4.6 ± 0.1 | – | – | – | – | – | – | – | – | –
4 | Cl.NCCCCC(NC(=O)[C@@H]1CCCN1C(=O)c1ccccc1Oc1ccccc1)P(=O)(Oc1ccccc1)Oc1ccccc1 (some centres unmarked) [2-Phenoxybenzoyl-Pro--Lys^P (OPh)2, Diphenyl 1-(N-(2-Phenoxybenzoylprolyl)amino)-5-aminopentanephosphonate Hydrochloride] | 0.6 ± 0.1 | 4,531 ± 140 M^-1 s^-1 | 19 ± 1 M⁻¹ s⁻¹ | 16,411 ± 460 M^-1 s^-1 | 7.1 ± 0.2 | – | – | – | – | – | – | – | – | –
5 | Diphenyl N-(N-Benzyloxycarbonyl)amino(6-aminohexyl)methanephosphonate [Cbz-HomoLys^P (OPh)2] | 1.0 ± 0.0 | – | 0.7 M⁻¹ s⁻¹ | 21 ± 6 M⁻¹ s⁻¹ | – | – | – | – | – | – | – | – | – | –
6 | NCCCCCC(NC(=O)[C@@H]1CCCN1C(=O)CC(c1ccccc1)c1ccccc1)P(=O)(Oc1ccccc1)Oc1ccccc1 (some centres unmarked) [3,3-Diphenylpropanoyl-Pro-HomoLys^P (OPh)2] | 2.1 ± 0.2 | 224 ± 8 M⁻¹ s⁻¹ | 1.1 ± 0.0 M⁻¹ s⁻¹ | 16 ± 1 M⁻¹ s⁻¹ | – | 50 | – | – | – | – | – | – | – | –
7 | NCCCCC(NC(=O)C1CCCN1C(=O)CNS(=O)(=O)Cc1ccccc1)P(=O)(Oc1ccccc1)Oc1ccccc1 (mixture of isomers) [PhCH2 SO2 --Gly--Pro--Lys^P (OPh)2] | 39 ± 2 | 649 ± 14 M⁻¹ s⁻¹ | 24 ± 0 M⁻¹ s⁻¹ | 12,472 ± 1,400 M^-1 s^-1 | 13 ± 1 | – | – | – | – | – | – | – | – | –
8 | CC(O)C(NC(=O)OCc1ccccc1)C(=O)NC(CCCCN)P(=O)(Oc1ccccc1)Oc1ccccc1 (mixture of isomers) [Cbz--Thr--Lys^P (OPh)2] | 0.7 ± 0.1 | – | 7 ± 1 M⁻¹ s⁻¹ | 230 M⁻¹ s⁻¹ | – | – | – | – | – | – | – | – | – | –
9 | Cl.NCCCCCC(NC(=O)[C@@H]1CCCN1C(=O)c1ccccc1Oc1ccccc1)P(=O)(Oc1ccccc1)Oc1ccccc1 (some centres unmarked) [2-Phenoxybenzoyl-Pro-HomoLys^P (OPh)2, Diphenyl 1-(N-(2-Phenoxybenzoylprolyl)amino)-6-aminohexanephosphonate Hydrochloride] | 24 ± 4 | 57 ± 5 M⁻¹ s⁻¹ | 7.7 ± 0.3 M⁻¹ s⁻¹ | 69 ± 13 M⁻¹ s⁻¹ | 3.6 ± 0.4 | – | – | – | – | – | – | – | – | –
10 | Cl.N=C(N)c1ccc(C(NC(=O)c2ccccc2Oc2ccccc2)P(=O)(Oc2ccccc2)Oc2ccccc2)cc1 (centres unmarked) [2-Phenoxybenzoyl-(4-AmPhGly)^P (OPh)2, Diphenyl N-(2-Phenoxybenzoyl)amino(4-amidinophenyl)methanephosphonate Hydrochloride] | – | – | – | – | – | – | 1 | 270 ± 20 M⁻¹ s⁻¹ | 670 ± 53 | 670 ± 53 M⁻¹ s⁻¹ | 0.4 | 0.4 | 340 ± 1 | 540 ± 3
11 | CC(NC(=O)OCc1ccccc1)C(=O)NC(C)C(=O)NC(C)C(=O)NC(c1ccc(C(=N)N)cc1)P(=O)(Oc1ccccc1)Oc1ccccc1 (mixture of isomers) [Cbz--Ala--Ala--Ala-(4-AmPhGly)^P (OPh)2] | – | – | – | – | – | – | 7 | 1,290 ± 26 M^-1 s^-1 | 1780 ± 33 | 1,780 ± 33 M^-1 s^-1 | 2 | 2.0 ± 0.2 | 590 ± 17 | 730 ± 15
